Measured values taken from patent publication US12636370B2, “Combination therapy for treatment of cancer” (Institute For Cancer Research, priority 2019, dated 2026).

Columns and labels:
Format in all cases: cell-based
CDK9 [1] = target: T1, CDK9 (Homo sapiens, UniProt P50750); test: Western blot of CDK9 protein levels, OVCAR8 cells; conditions: escalating doses
T1 construct: OVCAR8 cells were treated with escalating doses of Thal SNS 032 and CDK9 protein levels were determined by Western blot; endogenous in cells; host or cells: OVCAR8 parental and Thal-R cells
T1 sequence (P50750 whole entry): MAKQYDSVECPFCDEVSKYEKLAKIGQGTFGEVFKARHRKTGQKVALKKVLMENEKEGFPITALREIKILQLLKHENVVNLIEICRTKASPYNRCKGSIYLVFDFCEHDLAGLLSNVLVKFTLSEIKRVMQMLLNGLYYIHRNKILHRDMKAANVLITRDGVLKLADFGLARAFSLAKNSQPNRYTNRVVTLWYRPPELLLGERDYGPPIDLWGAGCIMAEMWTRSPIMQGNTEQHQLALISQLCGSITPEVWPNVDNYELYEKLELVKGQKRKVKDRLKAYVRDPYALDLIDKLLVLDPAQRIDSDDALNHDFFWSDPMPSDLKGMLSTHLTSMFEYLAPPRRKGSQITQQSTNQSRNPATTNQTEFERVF
T1 sequence (O60563 whole entry partner): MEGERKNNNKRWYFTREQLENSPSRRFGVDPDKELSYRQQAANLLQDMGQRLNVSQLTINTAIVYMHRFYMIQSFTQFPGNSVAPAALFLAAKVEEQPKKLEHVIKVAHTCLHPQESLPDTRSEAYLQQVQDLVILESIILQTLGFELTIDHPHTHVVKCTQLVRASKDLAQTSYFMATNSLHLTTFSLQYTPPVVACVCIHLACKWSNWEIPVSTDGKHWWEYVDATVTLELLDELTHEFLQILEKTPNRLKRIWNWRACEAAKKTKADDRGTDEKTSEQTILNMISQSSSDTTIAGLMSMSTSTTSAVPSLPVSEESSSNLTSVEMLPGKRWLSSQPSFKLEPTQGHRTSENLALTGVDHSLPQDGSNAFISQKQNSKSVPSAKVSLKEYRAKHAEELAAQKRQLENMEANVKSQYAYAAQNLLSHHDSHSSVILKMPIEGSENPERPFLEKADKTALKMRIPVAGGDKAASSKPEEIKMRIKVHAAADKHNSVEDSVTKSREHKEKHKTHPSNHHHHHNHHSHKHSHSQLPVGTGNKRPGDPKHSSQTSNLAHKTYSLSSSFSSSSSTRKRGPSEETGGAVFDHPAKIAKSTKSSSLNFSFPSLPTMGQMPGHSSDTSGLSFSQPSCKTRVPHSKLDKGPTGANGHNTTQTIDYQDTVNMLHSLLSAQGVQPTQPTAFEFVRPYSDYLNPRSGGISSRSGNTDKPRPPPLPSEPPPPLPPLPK
Protocol: (§1) Chronic exposure of OVCAR8 cells to CDK9 PROTAC (Thal SNS 032) sensitized cells to RAD001 or GSK1904529A. […] Moreover, these studies show both BET PROTACs and CDK9 PROTACs elicit a similar dependency on MTOR signaling to promote drug resistance. […] OVCAR8 cells were treated with escalating doses of Thal SNS 032 and CDK9 protein levels were determined by Western blot (FIG. 15A). […] (FIG. 15B). […] Thal-R inhibitor treated cell viabilities were normalized to DMSO treated Thal-R cells. Combination therapies involving GSK529A or RAD001 and Thal SNS 032 improved growth repression of OVCAR8 cells. OVCAR8 cells were treated with 100 nM Thal SNS 032, escalating doses of GSK529A or RAD001, or the combination of Thal SNS 032 and kinase inhibitors, for 5 days and cell viability was assessed by CellTiter-Glo (FIGS. 15F and 15G).

CDK9 [2] = target: T1, CDK9; test: Western blot of CDK9 protein levels, OVCAR8 Thal-R cells; conditions: Thal 500 nM or 2 μM kinase inhibitor, 4 hours
Protocol: OVCAR8 cells were treated with escalating doses of Thal SNS 032 and CDK9 protein levels were determined by Western blot (FIG. 15A). […] Thal-R inhibitor treated cell viabilities were normalized to DMSO treated Thal-R cells. […] OVCAR8 cells were treated with 100 nM Thal SNS 032, escalating doses of GSK529A or RAD001, or the combination of Thal SNS 032 and kinase inhibitors, for 5 days and cell viability was assessed by CellTiter-Glo (FIGS. 15F and 15G).

BET proteins, FOSL1, MYC = test: Western blot of BET proteins and BRD4 targets, JQ1-R cells
[3] = tested on: INSR and downstream MTOR, AKT and MAPK signaling; test: Kinase signaling in BBD-R cells (MIB-MS, phospho-blot); conditions: for phosphorylation of P70S6K (T359): BBD-R cells (MZ1-R, ARV-R), 4 hours
Protocol: Reduced MIB-binding of kinases involved in cell cycle (WEE1, CHEK1, CDK2, CDK6 and PLK1), as well as kinases required for translation (EIF2AK1, EIF2AK2, and EIF2AK4) were also observed following GSK529A treatment. […] Enrichment maps of pathways repressed by INSR inhibition generated from MIB-MS profiles of OVCAR8 cells treated with GSK529A (1 μM) treatment for 48 hours. Statistical differences in protein log 2 LFQ z-scores comparing GSK529A to control treated MZ1-R cells was determined by paired T-Test Benjamini- Hochberg adjusted p values at FDR of <0.05 using Perseus Software. […] Enrichment maps were generated in Cytoscape using the Enrichment Map app v2.2.1. (data not shown).

[4] = tested on: OVCAR8 parental, MZ1-R or ARV-R; test: 14-day colony formation assay, crystal violet staining; conditions: ARV-R or MZ1-R vs parental OVCAR8, 14-day
Protocol: Parental, JQ1-R or MZ1-R OVCAR8 cells were treated with escalating doses of MK2206 for 5 days and cell viability assessed by CellTiter-Glo. MZ1-R or JQ1-R inhibitor treated cell viabilities normalized to DMSO treated JQ1-R or MZ1-R cells, respectfully (FIG. 11J). […] Parental, JQ1-R or MZ1-R OVCAR8 cells were treated with escalating doses of LP-935509 for 5 days and cell viability assessed by CellTiter-Glo. MZ1-R or JQ1-R inhibitor treated cell viabilities normalized to DMSO treated JQ1-R or MZ1-R cells, respectfully (FIG. 11K). […] Long-term 14-day colony formation assay of OVCAR8 parental, MZ1-R or ARV-R were treated with escalating doses of GSK529A or DMSO. Colony formation was assessed by crystal violet staining (FIG. 11L).

OVCAR8 MZ1-R cells [5] = test: Apoptosis by Western blot, OVCAR8 MZ1-R cells
OVCAR8 MZ1-R cells [6] = test: CellTiter-Glo cell viability, OVCAR8 MZ1-R cells; conditions: escalating doses, 5 days; for sensitivity of MZ1-R cells relative to JQ1-R cells or parental cells: OVCAR8, inhibitor screen
[7] = tested on: BET proteins (BRD2, BRD3, BRD4); test: Western blot of BET protein levels, OVCAR8 parental cells
BRD2, BRD3 or BRD4 RNA = test: qRT-PCR of BRD RNA levels, OVCAR8 MZ1-R cells; conditions: 1 μM, 48 hours
OVCAR8 ARV-R cells = test: CellTiter-Glo cell viability, OVCAR8 ARV-R cells; conditions: escalating doses, 5 days
OVCAR8 Thal-R cells = test: CellTiter-Glo cell viability, OVCAR8 Thal-R cells; conditions: OVCAR8, escalating doses, 5 days
Protocol: as §1

OVCAR5 JQ1-R cells = test: Growth curves, OVCAR5 JQ1-R cells
[8] = tested on: KURAMOCHI, COV362 and OVCAR5 MZ1-R cells; test: CellTiter-Glo cell viability, KURAMOCHI, COV362 and OVCAR5 MZ1-R cells; conditions: COV362 and OVCAR5, escalating doses, 5 days
[9] = tested on: BET proteins (BRD2, BRD4); test: Western blot of BET proteins, KURAMOCHI, COV362 and OVCAR5 MZ1-R cells
[10] = tested on: BET proteins (BRD2, BRD3, BRD4); test: Western blot of BET proteins and BRD4 targets, OVCAR8 MZ1-R cells; conditions: for BET protein levels: Western blot
KURAMOCHI cells = test: Combination cell viability, KURAMOCHI cells, CellTiter-Glo; conditions: 100 nM, 5 days
Source text: The proposed model of the protection of BRD4 from PROTAC-degradation by MTOR signaling in ovarian cancer cells is shown in FIG. 7J. PROTAC-mediated degradation of BRD4 induces RTK signaling resulting in increased MTOR signaling which prevents the degradation of BRD4 in cells resistant to BET PROTACs.

DLD-1 cells [11] = test: Spheroid assay, DLD-1 cells; conditions: 2 μM RAD001, 1 nM dBET6
Protocol: Data were analyzed as % cell viability of DMSO control, presented as means of 3 independent assays.

[12] = tested on: BET proteins (BRD2, BRD3, BRD4); test: Western blot of BET proteins, OVCAR8 ARV-R cells
DLD-1 cells [13] = test: Cell-Titer Glo cell viability and drug synergy, DLD-1 cells
Protocol: Blockade of MTORC1 signaling sensitizes cancer cells resistant to BET-PROTACs. […] Data were analyzed as % cell viability of DMSO control, presented as means of 3 independent assays.

`CC(C)(C)c1cnc(CSc2cnc(NC(=O)C3CCN(CC(=O)NCCOCCOCCOCCNc4cccc5c4C(=O)N(C4CCC(=O)NC4=O)C5=O)CC3)s2)o1` (stereo not drawn) [Thal SNS 032] was tested, and the CDK9 protein levels (CDK9 [1]) was “reduction of CDK9 protein levels” and the CDK9 protein levels (CDK9 [2]) was “failed to degrade CDK9”.

In the case of `CCc1cc(Nc2nccc(-c3c(-c4ccc(OC)c(C(=O)Nc5c(F)cccc5F)c4)nc4ccccn34)n2)c(OC)cc1N1CCC(N2CCN(S(C)(=O)=O)CC2)CC1` [GSK1904529A], the BET protein levels (BET proteins, FOSL1, MYC) is reported as “did not reduce BET protein levels”, the “phosphorylation of P70S6K (T359)” value ([3]; 1 μM) is reported as “reduced MTOR-mediated phosphorylation of P70S6K (T359)” and the “kinase MIB-binding” value ([3]; OVCAR8 MZ1-R cells, 1 μM, 48 hours, MIB-MS) is reported as “reduced MIB-binding of drug targets INSR and IGF1R”. For the same compound, the “kinase activity by phospho-blot” value ([3]; OVCAR8 MZ1-R cells, escalating doses, 48 hours) was “Inhibition of INSR/IGF1R, MTOR, P70S6K, BRAF and ERK activity”, the colony formation [4] was “inhibited colony formation to a greater extent than parental cells” and the apoptosis (OVCAR8 MZ1-R cells [5]) was “induction of apoptosis”. The “sensitivity of MZ1-R cells relative to JQ1-R cells or parental cells” value (OVCAR8 MZ1-R cells [6]) was “more sensitive”, the BET protein levels [7] was “did not reduce BET protein levels” and the CDK9 protein levels (CDK9 [2]) was “downregulation of CDK9”. The “BRD2, BRD3 or BRD4 RNA levels” value (BRD2, BRD3 or BRD4 RNA) was “unaffected”, the “cell viability of ARV-R cells compared with parental cells” value (OVCAR8 ARV-R cells) was “reduced cell viability more than in parental cells” and the “sensitivity of Thal-R cells relative to parental cells” value (OVCAR8 Thal-R cells) was “more sensitive”. For the same compound, the growth inhibition (OVCAR5 JQ1-R cells) was “minimal growth inhibition”, the “cell viability / growth of MZ1-R cells compared with parental cells” value [8] was “significantly blocked cell growth to a greater extent than parental cells” and the BET protein levels [9] was “reduced BRD2 and BRD4 proteins”. The BET protein levels [10] was “significantly reduced” and the MYC protein levels ([10]; escalating doses, 48 hours) was “dose dependent reduction in MYC protein levels”.

In the case of `CO[C@H]1C[C@@H]2CC[C@@H](C)[C@@](O)(O2)C(=O)C(=O)N2CCCC[C@H]2C(=O)O[C@H]([C@H](C)C[C@@H]2CC[C@@H](OCCO)[C@H](OC)C2)CC(=O)[C@H](C)/C=C(\C)[C@@H](O)[C@@H](OC)C(=O)[C@H](C)C[C@H](C)/C=C/C=C/C=C/1C` [RAD001], the “phosphorylation of P70S6K (T359)” value ([3]; 1 μM) is reported as “reduced MTOR-mediated phosphorylation of P70S6K (T359)”, the “phosphorylated RNA pol II (S2)” value ([3]; OVCAR8 MZ1-R cells, 48 hour RAD001 treatment, with or without bortezomib) is reported as “inhibition of phosphorylated RNA pol II (S2)” and the “cell viability / growth inhibition” value (KURAMOCHI cells) is reported as “less effective”. For the same compound, the “spheroid growth in 3D assays” value (DLD-1 cells [11]) was “ineffective”, the BET protein levels [12] was “reduced BRD2 and BRD4 levels” and the “sensitivity of MZ1-R cells relative to JQ1-R cells or parental cells” value (OVCAR8 MZ1-R cells [6]) was “more sensitive”. For the same compound, the CDK9 protein levels (CDK9 [2]) was “downregulation of CDK9”, the “BRD2, BRD3 or BRD4 RNA levels” value (BRD2, BRD3 or BRD4 RNA) was “unaffected” and the “cell viability of ARV-R cells compared with parental cells” value (OVCAR8 ARV-R cells) was “reduced cell viability more than in parental cells”. For the same compound, the “sensitivity of Thal-R cells relative to parental cells” value (OVCAR8 Thal-R cells) was “more sensitive”, the growth inhibition (OVCAR5 JQ1-R cells) was “minimal growth inhibition” and the “cell viability / growth of MZ1-R cells compared with parental cells” value [8] was “significantly blocked cell growth to a greater extent than parental cells”. For the same compound, the BET protein levels [9] was “reduced BRD2 and BRD4 proteins” and the BET protein levels [10] was “reduced BRD2 and BRD4 levels”.

`Cc1sc2c(c1C)C(c1ccc(Cl)cc1)=N[C@@H](CC(=O)NCCCCCCCCNC(=O)COc1cccc3c1C(=O)N(C1CCC(=O)NC1=O)C3=O)c1nnc(C)n1-2` (stereo partly drawn) [dBET6] was tested, and the GI50 (DLD-1 cells [13]) was over 1 µM, the apoptosis (OVCAR8 MZ1-R cells [5]) was “promoted apoptosis” and the “cell viability / growth inhibition” value (KURAMOCHI cells) was “less effective”. For the same compound, the “spheroid growth in 3D assays” value (DLD-1 cells [11]) was “ineffective”, the “cell viability of MZ1-R cells compared with parental cells” value (OVCAR8 MZ1-R cells [6]; OVCAR8 MZ1-R) was “inhibited cell viability” and the “cell viability of ARV-R cells compared with parental cells” value (OVCAR8 ARV-R cells) was “cross resistance”.
